In brackets after ≈: the same amount, converted by molar mass.

The text below walks through data of ChEMBL document CHEMBL3046063, “Synthesis and antimicrobial activity of 5-chloroindoline-2,3-dione derivatives” (2012).

Common to all, as to format: functional
One assay deals with Klebsiella pneumoniae. The assay is described as follows: Antimicrobial activity against Klebsiella pneumoniae ATCC 13883 after 24 hr by broth dilution method. Particulars: ATCC 13883, 24 h. Background: Dilution methods test growth across graded concentrations, often in twofold steps.
The next assay has as its system Aspergillus fumigatus. The assay is described as follows: Antimicrobial activity against Aspergillus fumigatus after 24 hr by broth dilution method.
In another assay the test system is Aspergillus niger. The assay is described as follows: Antimicrobial activity against Aspergillus niger ATCC 9142 after 24 hr by broth dilution method. Conditions: ATCC 9142, 24 h.
Another assay concerns Aspergillus flavus. The assay is described as follows: Antimicrobial activity against Aspergillus flavus ATCC 15517 after 24 hr by broth dilution method. Conditions: ATCC 15517, 24 h.
In another assay the test system is Staphylococcus aureus. In words: Antimicrobial activity against Staphylococcus aureus ATCC 25923 after 24 hr by broth dilution method. Particulars: ATCC 25923, 24 h.
Another assay relates to Proteus vulgaris. The assay is described as follows: Antimicrobial activity against Proteus vulgaris ATCC 13315 after 24 hr by broth dilution method. Particulars: ATCC 13315, 24 h.
A further assay deals with Bacillus cereus. In words: Antimicrobial activity against Bacillus cereus ATCC 11778 after 24 hr by broth dilution method. Particulars: ATCC 11778, 24 h.
A further assay has as its system Salmonella typhi. In words: Antimicrobial activity against Salmonella enterica subsp. enterica serovar Typhi ATCC 19430 after 24 hr by broth dilution method. Particulars: ATCC 19430, 24 h.
Another assay relates to Aspergillus awamori. In words: Antimicrobial activity against Aspergillus awamori ATCC 22342 after 24 hr by broth dilution method. Particulars: ATCC 22342, 24 h.
The test system of another assay is Bacillus spizizenii. The assay is described as follows: Antimicrobial activity against Bacillus subtilis subsp. spizizenii ATCC 6633 after 24 hr by broth dilution method. Particulars: ATCC 6633, 24 h.
The next assay relates to Proteus mirabilis. The assay is described as follows: Antimicrobial activity against Proteus mirabilis ATCC 49565 after 24 hr by broth dilution method. Particulars: ATCC 49565, 24 h.
For a further assay, the system named is Rhizoctonia solani. The assay is described as follows: Antimicrobial activity against Rhizoctonia solani ATCC 76131 after 24 hr by broth dilution method. Particulars: ATCC 76131, 24 h.
For the next assay, the system named is Staphylococcus hominis. The assay is described as follows: Antimicrobial activity against Staphylococcus hominis ATCC 27844 after 24 hr by broth dilution method. Conditions: ATCC 27844, 24 h.
The subject of a further assay is Alternaria alternata. The assay is described as follows: Antimicrobial activity against Alternaria alternata ATCC 66868 after 24 hr by broth dilution method. Particulars: ATCC 66868, 24 h.
The test system of a further assay is Trichoderma viride. In words: Antimicrobial activity against Hypocrea rufa ATCC 52440 after 24 hr by broth dilution method. Conditions: ATCC 52440, 24 h.
Another assay has as its system Pseudomonas aeruginosa. In words: Antimicrobial activity against Pseudomonas aeruginosa ATCC 10145 after 24 hr by broth dilution method. Conditions: ATCC 10145, 24 h.
The subject of a further assay is Microsporum canis. In words: Antimicrobial activity against Arthroderma otae ATCC 11622 after 24 hr by broth dilution method. Conditions: ATCC 11622, 24 h.
Another assay concerns Escherichia coli. In words: Antimicrobial activity against Escherichia coli ATCC 25922 after 24 hr by broth dilution method. Conditions: ATCC 25922, 24 h.
A further assay concerns Candida albicans. In words: Antimicrobial activity against Candida albicans ATCC 10231 after 24 hr by broth dilution method. Particulars: ATCC 10231, 24 h.
Assay [1] has as its system Staphylococcus epidermidis. In words: Antimicrobial activity against Staphylococcus epidermidis ATCC 12228 after 24 hr by broth dilution method. Particulars: ATCC 12228, 24 h.
For another assay, the system named is Bacillus pumilus. The assay is described as follows: Antimicrobial activity against Bacillus pumilus ATCC 14884 after 24 hr by broth dilution method. Particulars: ATCC 14884, 24 h.
The test system of a further assay is Trichophyton longifusum. The assay is described as follows: Antimicrobial activity against Trichophyton longifusum ATCC 22397 after 24 hr by broth dilution method. Conditions: ATCC 22397, 24 h.
The next assay has as its system Fusarium solani. In words: Antimicrobial activity against Fusarium solani ATCC 38136 after 24 hr by broth dilution method. Conditions: ATCC 38136, 24 h.
The next assay deals with Micrococcus luteus. The assay is described as follows: Antimicrobial activity against Micrococcus luteus ATCC 4698 after 24 hr by broth dilution method. Particulars: ATCC 4698, 24 h.

By MIC is commonly meant the smallest concentration in the dilution series that meets the test's criterion for growth inhibition. A high value points to a need for much substance. `O=C1Nc2ccc(Cl)cc2/C1=N/N1C(=O)CSC1c1ccccc1O` (stereo unspecified): the minimal inhibitory concentration (MIC) worked out at 300 µg/mL (≈ 803 µM) in the assay with Klebsiella pneumoniae; 150 µg/mL (≈ 401 µM) against Aspergillus fumigatus; 150 µg/mL (≈ 401 µM) in the assay on Aspergillus niger; 75 µg/mL (≈ 201 µM) with Aspergillus flavus; 300 µg/mL (≈ 803 µM) against Staphylococcus aureus; 150 µg/mL (≈ 401 µM) in the assay with Proteus vulgaris. Also, the MIC against Bacillus cereus was 150 µg/mL (≈ 401 µM); in the assay on Salmonella typhi it was 150 µg/mL (≈ 401 µM); with Aspergillus awamori, 150 µg/mL (≈ 401 µM); with Bacillus spizizenii, 150 µg/mL (≈ 401 µM); against Proteus mirabilis, 300 µg/mL (≈ 803 µM); against Rhizoctonia solani it was 150 µg/mL (≈ 401 µM). In addition, the MIC was 150 µg/mL (≈ 401 µM) against Staphylococcus hominis; 75 µg/mL (≈ 201 µM) against Alternaria alternata; 150 µg/mL (≈ 401 µM) against Trichoderma viride; 300 µg/mL (≈ 803 µM) against Pseudomonas aeruginosa; 75 µg/mL (≈ 201 µM) against Microsporum canis; 300 µg/mL (≈ 803 µM) in the assay with Escherichia coli. For the same compound, the MIC against Candida albicans came out at 75 µg/mL (≈ 201 µM); in [1] it was 300 µg/mL (≈ 803 µM); in the assay on Bacillus pumilus it was 150 µg/mL (≈ 401 µM); in the assay with Trichophyton longifusum, 150 µg/mL (≈ 401 µM); with Fusarium solani, 150 µg/mL (≈ 401 µM); against Micrococcus luteus it was 150 µg/mL (≈ 401 µM).
As for `O=C1Nc2ccc(Cl)cc2/C1=N/N1C(=O)CSC1c1ccc(O)cc1` (stereo unspecified), the minimal inhibitory concentration (MIC) against Klebsiella pneumoniae was 9.37 µg/mL (≈ 25.1 µM); against Aspergillus fumigatus it was 4.68 µg/mL (≈ 12.5 µM); against Aspergillus niger, 4.68 µg/mL (≈ 12.5 µM); against Aspergillus flavus, 9.37 µg/mL (≈ 25.1 µM); against Staphylococcus aureus it was 18.8 µg/mL (≈ 50.2 µM); in the assay on Proteus vulgaris it was 9.37 µg/mL (≈ 25.1 µM). Moreover, the MIC against Bacillus cereus is 18.8 µg/mL (≈ 50.2 µM); against Salmonella typhi, 9.37 µg/mL (≈ 25.1 µM); in the assay on Aspergillus awamori, 4.68 µg/mL (≈ 12.5 µM); with Bacillus spizizenii it was 18.8 µg/mL (≈ 50.2 µM); in the assay with Proteus mirabilis, 18.8 µg/mL (≈ 50.2 µM); in the assay on Rhizoctonia solani it was 9.37 µg/mL (≈ 25.1 µM). In addition, the MIC in the assay with Staphylococcus hominis is 9.37 µg/mL (≈ 25.1 µM); against Alternaria alternata, 9.37 µg/mL (≈ 25.1 µM); with Trichoderma viride, 4.68 µg/mL (≈ 12.5 µM); against Pseudomonas aeruginosa, 9.37 µg/mL (≈ 25.1 µM); against Microsporum canis, 9.37 µg/mL (≈ 25.1 µM); with Escherichia coli it was 18.8 µg/mL (≈ 50.2 µM). In addition, the MIC against Candida albicans amounted to 4.68 µg/mL (≈ 12.5 µM); in assay [1], 9.37 µg/mL (≈ 25.1 µM); in the assay with Bacillus pumilus it was 9.37 µg/mL (≈ 25.1 µM); against Trichophyton longifusum it was 4.68 µg/mL (≈ 12.5 µM); in the assay on Fusarium solani, 4.68 µg/mL (≈ 12.5 µM); in the assay on Micrococcus luteus, 18.8 µg/mL (≈ 50.2 µM).
On to `CN(C)c1ccc(C2SCC(=O)N2/N=C2\C(=O)Nc3ccc(Cl)cc32)cc1` (stereo unspecified), for which the MIC against Klebsiella pneumoniae came out at 18.8 µg/mL (≈ 46.8 µM); in the assay on Aspergillus fumigatus, 4.68 µg/mL (≈ 11.7 µM); with Aspergillus niger, 4.68 µg/mL (≈ 11.7 µM); with Aspergillus flavus, 4.68 µg/mL (≈ 11.7 µM); in the assay on Staphylococcus aureus, 9.37 µg/mL (≈ 23.4 µM); with Proteus vulgaris it was 18.8 µg/mL (≈ 46.8 µM). Further, the MIC against Bacillus cereus was 18.8 µg/mL (≈ 46.8 µM); in the assay with Salmonella typhi, 9.37 µg/mL (≈ 23.4 µM); against Aspergillus awamori it was 9.37 µg/mL (≈ 23.4 µM); against Bacillus spizizenii, 18.8 µg/mL (≈ 46.8 µM); against Proteus mirabilis, 9.37 µg/mL (≈ 23.4 µM); against Rhizoctonia solani, 4.68 µg/mL (≈ 11.7 µM). The MIC turned out to be 9.37 µg/mL (≈ 23.4 µM) against Staphylococcus hominis; 4.68 µg/mL (≈ 11.7 µM) in the assay on Alternaria alternata; 4.68 µg/mL (≈ 11.7 µM) with Trichoderma viride; 18.8 µg/mL (≈ 46.8 µM) against Pseudomonas aeruginosa; 9.37 µg/mL (≈ 23.4 µM) against Microsporum canis; 18.8 µg/mL (≈ 46.8 µM) against Escherichia coli. Besides, the MIC with Candida albicans amounted to 9.37 µg/mL (≈ 23.4 µM); in assay [1], 18.8 µg/mL (≈ 46.8 µM); in the assay on Bacillus pumilus, 9.37 µg/mL (≈ 23.4 µM); with Trichophyton longifusum, 4.68 µg/mL (≈ 11.7 µM); in the assay with Fusarium solani, 4.68 µg/mL (≈ 11.7 µM); against Micrococcus luteus it was 18.8 µg/mL (≈ 46.8 µM).
For the compound `COc1ccc(C2SCC(=O)N2/N=C2\C(=O)Nc3ccc(Cl)cc32)cc1` (stereo unspecified), the minimal inhibitory concentration (MIC) in the assay with Klebsiella pneumoniae is 9.37 µg/mL (≈ 24.2 µM); against Aspergillus fumigatus, 4.68 µg/mL (≈ 12.1 µM); in the assay with Aspergillus niger, 4.68 µg/mL (≈ 12.1 µM); against Aspergillus flavus, 9.37 µg/mL (≈ 24.2 µM); in the assay on Staphylococcus aureus, 18.8 µg/mL (≈ 48.3 µM); in the assay with Proteus vulgaris it was 37.5 µg/mL (≈ 96.7 µM). Moreover, the MIC against Bacillus cereus turned out to be 18.8 µg/mL (≈ 48.3 µM); in the assay on Salmonella typhi, 9.37 µg/mL (≈ 24.2 µM); against Aspergillus awamori it was 4.68 µg/mL (≈ 12.1 µM); in the assay on Bacillus spizizenii, 9.37 µg/mL (≈ 24.2 µM); with Proteus mirabilis, 9.37 µg/mL (≈ 24.2 µM); against Rhizoctonia solani, 9.37 µg/mL (≈ 24.2 µM). The minimal inhibitory concentration (MIC) against Staphylococcus hominis worked out at 18.8 µg/mL (≈ 48.3 µM); with Alternaria alternata, 9.37 µg/mL (≈ 24.2 µM); against Trichoderma viride it was 4.68 µg/mL (≈ 12.1 µM); in the assay on Pseudomonas aeruginosa it was 18.8 µg/mL (≈ 48.3 µM); against Microsporum canis, 9.37 µg/mL (≈ 24.2 µM); against Escherichia coli, 18.8 µg/mL (≈ 48.3 µM). Also, the MIC against Candida albicans is 4.68 µg/mL (≈ 12.1 µM); in [1] it was 9.37 µg/mL (≈ 24.2 µM); in the assay on Bacillus pumilus it was 18.8 µg/mL (≈ 48.3 µM); against Trichophyton longifusum, 4.68 µg/mL (≈ 12.1 µM); against Fusarium solani, 4.68 µg/mL (≈ 12.1 µM); in the assay on Micrococcus luteus, 18.8 µg/mL (≈ 48.3 µM).
